Each structure is given as a SMILES string. Activity calls are given as the source filed them. How the calls were made is not given here.

In this data set the test system is CCRIS mutagenicity, Ames/micronucleus/aberration tests. Nature of the data set: CCRIS mutagenicity studies.
The mark [1] stands for this setting: Test System: AMES SALMONELLA TYPHIMURIUM, Strain/Indicator: TA98, Metabolic Activation: NONE, Method: PREINCUBATION
[2] abbreviates: Test System: AMES SALMONELLA TYPHIMURIUM, Strain/Indicator: TA98, Metabolic Activation: RAT, LIVER, S-9, AROCLOR 1254 (10%), Method: PREINCUBATION
[3] abbreviates: Test System: AMES SALMONELLA TYPHIMURIUM, Strain/Indicator: TA100, Metabolic Activation: NONE, Method: PREINCUBATION
Where [4] appears, read: Test System: AMES SALMONELLA TYPHIMURIUM, Strain/Indicator: TA100, Metabolic Activation: RAT, LIVER, S-9, AROCLOR 1254 (10%), Method: PREINCUBATION

Take `CCOC(=O)C1OC1(C)c1ccccc1` (configuration not stated): the mutagenic call reads like this: (End Point: IN VITRO CHROMOSOMAL ABERRATIONS, Test System: CHINESE HAMSTER OVARY CELLS, Metabolic Activation: NONE) “active; positive; statistically significant increase, but not dose-related”; (End Point: IN VITRO CHROMOSOMAL ABERRATIONS, Test System: CHINESE HAMSTER OVARY CELLS, Metabolic Activation: RAT, LIVER, S-9, AROCLOR 1254) “active; positive”; (Test System: AMES SALMONELLA TYPHIMURIUM, Strain/Indicator: TA98, Metabolic Activation: HAMSTER, LIVER, S-9, AROCLOR 1254 (10%), Method: PREINCUBATION) “inactive; negative”; under setting [1], “inactive; negative”; under setting [2], “inactive; negative”; (Test System: AMES SALMONELLA TYPHIMURIUM, Strain/Indicator: TA100, Metabolic Activation: HAMSTER, LIVER, S-9, AROCLOR 1254 (10%), Method: PREINCUBATION) “inactive; negative”. For the same molecule, the mutagenic call under setting [3] is “inactive; negative”; the mutagenic call under setting [4] is “inactive; negative”; the mutagenic call (Test System: AMES SALMONELLA TYPHIMURIUM, Strain/Indicator: TA1535, Metabolic Activation: HAMSTER, LIVER, S-9, AROCLOR 1254 (10%), Method: PREINCUBATION) was “inactive; negative”; the mutagenic call (Test System: AMES SALMONELLA TYPHIMURIUM, Strain/Indicator: TA1535, Metabolic Activation: NONE, Method: PREINCUBATION) was “inactive; negative”; the mutagenic call (Test System: AMES SALMONELLA TYPHIMURIUM, Strain/Indicator: TA1535, Metabolic Activation: RAT, LIVER, S-9, AROCLOR 1254 (10%), Method: PREINCUBATION) is “inactive; negative”; the mutagenic call (Test System: AMES SALMONELLA TYPHIMURIUM, Strain/Indicator: TA1537, Metabolic Activation: HAMSTER, LIVER, S-9, AROCLOR 1254 (10%), Method: PREINCUBATION) is “inactive; negative”. For the same molecule, the mutagenic call is “inactive; negative” (Test System: AMES SALMONELLA TYPHIMURIUM, Strain/Indicator: TA1537, Metabolic Activation: NONE, Method: PREINCUBATION) and “inactive; negative” (Test System: AMES SALMONELLA TYPHIMURIUM, Strain/Indicator: TA1537, Metabolic Activation: RAT, LIVER, S-9, AROCLOR 1254 (10%), Method: PREINCUBATION).
Consider `O=[N+]([O-])c1cccc2c1-c1ccccc1C2`, for which the mutagenic call (End Point: IN VITRO CHROMOSOMAL ABERRATIONS, Test System: CHINESE HAMSTER LUNG (CHL) CELLS, Metabolic Activation: NONE) was “active; positive” and the mutagenic call (End Point: IN VITRO CHROMOSOMAL ABERRATIONS, Test System: CHINESE HAMSTER LUNG (CHL) CELLS, Metabolic Activation: RAT, LIVER, S-9, KC-400) is “active; positive”.
`O=S(=O)(NO)c1cccc2cccnc12`: the mutagenic call runs as follows: (Test System: AMES SALMONELLA TYPHIMURIUM, Strain/Indicator: TA98, Metabolic Activation: NONE, Method: STANDARD PLATE) “inactive; negative”; (Test System: AMES SALMONELLA TYPHIMURIUM, Strain/Indicator: TA98, Metabolic Activation: RAT, LIVER, S-9, AROCLOR 1254, Method: STANDARD PLATE) “inactive; negative”; (Test System: AMES SALMONELLA TYPHIMURIUM, Strain/Indicator: TA100, Metabolic Activation: NONE, Method: STANDARD PLATE) “inactive; negative”; (Test System: AMES SALMONELLA TYPHIMURIUM, Strain/Indicator: TA100, Metabolic Activation: RAT, LIVER, S-9, AROCLOR 1254, Method: STANDARD PLATE) “inactive; negative”; (Test System: AMES SALMONELLA TYPHIMURIUM, Strain/Indicator: TA1535, Metabolic Activation: NONE, Method: STANDARD PLATE) “inactive; negative”; (Test System: AMES SALMONELLA TYPHIMURIUM, Strain/Indicator: TA1535, Metabolic Activation: RAT, LIVER, S-9, AROCLOR 1254, Method: STANDARD PLATE) “inactive; negative”. For the same molecule, the mutagenic call runs as follows: (Test System: AMES SALMONELLA TYPHIMURIUM, Strain/Indicator: TA1537, Metabolic Activation: NONE, Method: STANDARD PLATE) “inactive; negative”; (Test System: AMES SALMONELLA TYPHIMURIUM, Strain/Indicator: TA1537, Metabolic Activation: RAT, LIVER, S-9, AROCLOR 1254, Method: STANDARD PLATE) “inactive; negative”.
On to `COc1ccc(/C=N/n2nnc3c([nH]c4ccccc43)c2=O)cc1`, for which the mutagenic call is “active; positive” (Test System: AMES SALMONELLA TYPHIMURIUM, Strain/Indicator: TA97, Metabolic Activation: NONE, Method: PREINCUBATION); “active; positive” (Test System: AMES SALMONELLA TYPHIMURIUM, Strain/Indicator: TA97, Metabolic Activation: RAT, LIVER, S-9, AROCLOR 1254 (10%), Method: PREINCUBATION); “active; positive” under setting [1]; “active; positive” under setting [2]; “active; positive” under setting [3]; “active; positive” under setting [4]. In addition, the mutagenic call by setting is: (Test System: AMES SALMONELLA TYPHIMURIUM, Strain/Indicator: TA102, Metabolic Activation: NONE, Method: PREINCUBATION) “inactive; negative”; (Test System: AMES SALMONELLA TYPHIMURIUM, Strain/Indicator: TA102, Metabolic Activation: RAT, LIVER, S-9, AROCLOR 1254 (10%), Method: PREINCUBATION) “inactive; negative”.

The record behind these values is PubChem BioAssay AID1259407 (Chemical Carcinogenesis Research Information System (CCRIS), 2018).
